How the values were obtained:
RON = target: T1, RON (Homo sapiens, UniProt Q04912); experiment: sfRON cell mechanistic assay (HeLa), phosphorylated RON ELISA; type: cell-based; conditions: HeLa cells transfected with sfRON; inhibition of phosphorylated RON; four hours incubation; at least duplicate experiments; read-out: sfRON mech IC50
T1 sequence (Q04912 913-1400): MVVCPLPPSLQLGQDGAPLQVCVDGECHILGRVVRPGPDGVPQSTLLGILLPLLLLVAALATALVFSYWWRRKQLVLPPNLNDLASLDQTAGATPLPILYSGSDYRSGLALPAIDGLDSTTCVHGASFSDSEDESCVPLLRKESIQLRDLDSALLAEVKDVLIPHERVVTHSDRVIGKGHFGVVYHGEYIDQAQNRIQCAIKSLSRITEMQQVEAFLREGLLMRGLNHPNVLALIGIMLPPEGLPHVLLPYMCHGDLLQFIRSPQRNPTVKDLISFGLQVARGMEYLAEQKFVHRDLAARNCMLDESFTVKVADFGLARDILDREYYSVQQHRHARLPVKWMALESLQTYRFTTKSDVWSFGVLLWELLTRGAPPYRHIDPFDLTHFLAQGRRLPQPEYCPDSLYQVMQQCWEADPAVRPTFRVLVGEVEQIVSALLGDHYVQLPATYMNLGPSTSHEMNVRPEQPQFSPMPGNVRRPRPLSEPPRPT
In short: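 HeLa cells transiently transfected with sfRON plasmid, then exposed 4 h at 37 °C to a 6-point compound series (typically 10 μM to 3 nM, 0.5% DMSO). Phospho-RON (pY1238/1239) in lysates measured by sandwich ELISA with luminescence. IC50 from 4-parameter fit of percent-of-DMSO-control data, at least duplicate runs.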

Karpas-299 cells = experiment: Karpas-299 cell proliferation assay (CellTiter-Glo); type: cell-based; conditions: Homo sapiens, 72 h; Karpas-299 cell line (NPM-ALK); 3 days incubation; at least duplicate experiments; read-out: Prolif. IC50

COc1ccc(F)c(Cl)c1[C@@H](C)c1c[nH]c2ncc(-c3cn(C)nc3CO)cc12 [Example 42, (4-{3-[(1S)-1-(2-Chloro-3-fluoro-6-methoxyphenyl)ethyl]-1H-pyrrolo[2,3-b]pyridin-5-yl}-1-methyl-1H-pyrazol-3-yl)methanol]
IC50 (RON): > 1000 nM
IC50 (Karpas-299 cells): 50 to 200 nM

Cc1nn(C[C@H](O)CO)cc1-c1cnc2[nH]cc([C@H](C)c3c(OC(F)F)ccc(F)c3Cl)c2c1 [Example 71, (2S)-3-[4-(3-{(1S)-1-[2-Chloro-6-(difluoromethoxy)-3-fluorophenyl]ethyl}-1H-pyrrolo[2,3-b]pyridin-5-yl)-3-methyl-1H-pyrazol-1-yl]propane-1,2-diol]
IC50 (RON): ≤ 200 nM
IC50 (Karpas-299 cells): ≤ 50 nM

COc1ccc(F)c(Cl)c1[C@@H](C)c1c[nH]c2ncc(-c3cnc(C)n3C)cc12 [Example 65, 3-[(1S)-1-(2-chloro-3-fluoro-6-methoxyphenyl)ethyl]-5-(1,2-dimethyl-1H-imidazol-5-yl)-1H-pyrrolo[2,3-b]pyridine]
IC50 (RON): > 1000 nM
IC50 (Karpas-299 cells): 200 to 1000 nM

C[C@H](c1c(OC(F)F)ccc(F)c1Cl)c1c[nH]c2ncc(-c3cnc(N4CCC(O)CC4)n3C)cc12 [Example 125, 1-[5-(3-{(1S)-1-[2-Chloro-6-(difluoromethoxy)-3-fluorophenyl]ethyl}-1H-pyrrolo[2,3-b]pyridin-5-yl)-1-methyl-1H-imidazol-2-yl]piperidin-4-ol]
IC50 (RON): ≤ 200 nM
IC50 (Karpas-299 cells): ≤ 50 nM

COc1ccc(F)c(Cl)c1[C@@H](C)c1c[nH]c2ncc(-c3cnn([C@H]4CC[C@H](C(=O)N(C)C)CC4)c3C)cc12 [Example 14, Trans-4-(4-{3-[(1S)-1-(2-chloro-3-fluoro-6-methoxyphenyl)ethyl]-1H-pyrrolo[2,3-b]pyridin-5-yl}-5-methyl-1H-pyrazol-1-yl)-N,N-dimethylcyclohexanecarboxamide]
IC50 (RON): 200 to 1000 nM
IC50 (Karpas-299 cells): ≤ 50 nM

CC(=O)N1CCC(n2ncc(-c3cnc4[nH]cc([C@H](C)c5c(OC(F)F)ccc(F)c5Cl)c4c3)c2C)CC1 [Example 97, 1-{4-[4-(3-{(1S)-1-[2-Chloro-6-(difluoromethoxy)-3-fluorophenyl]ethyl}-1H-pyrrolo[2,3-b]pyridin-5-yl)-5-methyl-1H-pyrazol-1-yl]piperidin-1-yl}ethanone]
IC50 (RON): ≤ 200 nM
IC50 (Karpas-299 cells): ≤ 50 nM

COc1ccc(F)c(Cl)c1[C@@H](C)c1c[nH]c2ncc(-c3cnn(C[C@H](O)CO)c3C)cc12 [Example 10, (2S)-3-(4-{3-[(1S)-1-(2-Chloro-3-fluoro-6-methoxyphenyl)ethyl]-1H-pyrrolo[2,3-b]pyridin-5-yl}-5-methyl-1H-pyrazol-1-yl)propane-1,2-diol]
IC50 (RON): ≤ 200 nM
IC50 (Karpas-299 cells): ≤ 50 nM

COc1ccc(F)c(Cl)c1[C@@H](C)c1c[nH]c2ncc(-c3c(C)nn([C@@H]4C[C@@H](O)[C@@H](O)C4)c3C)cc12 [Example 33, (1R,2S,4S)-4-(4-{3-[(1S)-1-(2-Chloro-3-fluoro-6-methoxyphenyl)ethyl]-1H-pyrrolo[2,3-b]pyridin-5-yl}-3,5-dimethyl-1H-pyrazol-1-yl)cyclopentane-1,2-diol]
IC50 (RON): 200 to 1000 nM
IC50 (Karpas-299 cells): ≤ 50 nM

COc1ccc(F)c(Cl)c1[C@@H](C)c1c[nH]c2ncc(-c3cn(C)nc3Cl)cc12 [Example 60, 3-[(1S)-1-(2-chloro-3-fluoro-6-methoxyphenyl)ethyl]-5-(3-chloro-1-methyl-1H-pyrazol-4-yl)-1H-pyrrolo[2,3-b]pyridine]
IC50 (RON): > 1000 nM
IC50 (Karpas-299 cells): 50 to 200 nM

COc1ccc(F)c(Cl)c1[C@@H](C)c1c[nH]c2ncc(-c3cnn(C)c3C)cc12 [Example 3, 3-[(1S)-1-(2-Chloro-3-fluoro-6-methoxyphenyl)ethyl]-5-(1,5-dimethyl-1H-pyrazol-4-yl)-1H-pyrrolo[2,3-b]pyridine]
IC50 (RON): 200 to 1000 nM
IC50 (Karpas-299 cells): 50 to 200 nM

C[C@H](c1c(OC(F)F)ccc(F)c1Cl)c1c[nH]c2ncc(-c3cnc([C@H]4CC[C@H](O)CC4)n3C)cc12 [Example 126, trans-4-[5-(3-{(1S)-1-[2-Chloro-6-(difluoromethoxy)-3-fluorophenyl]ethyl}-1H-pyrrolo[2,3-b]pyridin-5-yl)-1-methyl-1H-imidazol-2-yl]cyclohexanol]
IC50 (RON): ≤ 200 nM
IC50 (Karpas-299 cells): ≤ 50 nM

Cc1c(-c2cnc3[nH]cc([C@H](C)c4c(O)ccc(F)c4Cl)c3c2)cnn1[C@H]1CC[C@H](O)CC1 [Example 102, 3-Chloro-4-fluoro-2-[(1S)-1-{5-[1-(trans-4-hydroxycyclohexyl)-5-methyl-1H-pyrazol-4-yl]-1H-pyrrolo[2,3-b]pyridin-3-yl}ethyl]phenol]
IC50 (RON): 200 to 1000 nM
IC50 (Karpas-299 cells): 50 to 200 nM

CCc1nn(CC(C)(C)O)cc1-c1cnc2[nH]cc([C@H](C)c3c(OC)ccc(F)c3Cl)c2c1 [Example 12, 1-(4-{3-[(1S)-1-(2-Chloro-3-fluoro-6-methoxyphenyl)ethyl]-1H-pyrrolo[2,3-b]pyridin-5-yl}-3-ethyl-1H-pyrazol-1-yl)-2-methylpropan-2-ol]
IC50 (RON): 200 to 1000 nM
IC50 (Karpas-299 cells): 50 to 200 nM

COc1ccc(F)c(Cl)c1[C@@H](C)c1c[nH]c2ncc(-c3cn(C)nc3OC)cc12 [Example 61, 3-[(1S)-1-(2-Chloro-3-fluoro-6-methoxyphenyl)ethyl]-5-(3-methoxy-1-methyl-1H-pyrazol-4-yl)-1H-pyrrolo[2,3-b]pyridine]
IC50 (RON): 200 to 1000 nM
IC50 (Karpas-299 cells): 200 to 1000 nM

C[C@H](c1c(OC(F)F)ccc(F)c1Cl)c1c[nH]c2ncc(-c3cnn([C@H]4CC[C@H](O)CC4)c3CO)cc12 [Example 83, trans-4-[4-(3-{(1S)-1-[2-Chloro-6-(difluoromethoxy)-3-fluorophenyl]ethyl}-1H-pyrrolo[2,3-b]pyridin-5-yl)-5-(hydroxymethyl)-1H-pyrazol-1-yl]cyclohexanol]
IC50 (RON): 200 to 1000 nM
IC50 (Karpas-299 cells): 50 to 200 nM

CCc1nn([C@H]2CC[C@H](O)CC2)cc1-c1cnc2[nH]cc([C@H](C)c3c(OC)ccc(F)c3Cl)c2c1 [Example 47, trans-4-(4-{3-[(1S)-1-(2-Chloro-3-fluoro-6-methoxyphenyl)ethyl]-1H-pyrrolo[2,3-b]pyridin-5-yl}-3-ethyl-1H-pyrazol-1-yl)cyclohexanol]
IC50 (RON): 200 to 1000 nM
IC50 (Karpas-299 cells): 50 to 200 nM

COc1ccc(F)c(Cl)c1[C@@H](C)c1c[nH]c2ncc(-c3cn(C[C@@H](O)CO)nc3C(F)(F)F)cc12 [Example 34, (2R)-3-[4-{3-[(1S)-1-(2-Chloro-3-fluoro-6-methoxyphenyl)ethyl]-1H-pyrrolo[2,3-b]pyridin-5-yl}-3-(trifluoromethyl)-1H-pyrazol-1-yl]propane-1,2-diol]
IC50 (RON): > 1000 nM
IC50 (Karpas-299 cells): 200 to 1000 nM

Cc1c(-c2cnc3[nH]cc([C@H](CF)c4c(OC(F)F)ccc(F)c4Cl)c3c2)cnn1[C@H]1CC[C@H](O)CC1 [Example 124, trans-4-[4-(3-{(1S)-1-[2-chloro-6-(difluoromethoxy)-3-fluorophenyl]-2-fluoroethyl}-1H-pyrrolo[2,3-b]pyridin-5-yl)-5-methyl-1H-pyrazol-1-yl]cyclohexanol]
IC50 (RON): ≤ 200 nM
IC50 (Karpas-299 cells): ≤ 50 nM

COc1ccc(F)c(Cl)c1[C@@H](C)c1c[nH]c2ncc(-c3c(C)nn([C@H]4CC[C@H](O)CC4)c3C)cc12 [Example 6, trans-4-(4-{3-[(1S)-1-(2-Chloro-3-fluoro-6-methoxyphenyl)ethyl]-1H-pyrrolo[2,3-b]pyridin-5-yl}-3,5-dimethyl-1H-pyrazol-1-yl)cyclohexanol]
IC50 (RON): 200 to 1000 nM
IC50 (Karpas-299 cells): ≤ 50 nM

— patent US8445510B2, “Fused bicyclic kinase inhibitors” (OSI Pharmaceuticals, LLC, priority 2011, dated 2013)
